Laboratory results: the NIST ThermoML archive (doi:10.1016/j.jct.2008.03.011)

What was measured:
[1] = xn = mol fraction of the nth substance listed; settings: 101 kPa, Liquid; for speed of sound: Sing-around technique in a fixed-path interferometer
[2] = refractive index (Na D-line) (dimensionless); xn = mol fraction of the nth substance listed; settings: 101 kPa, Liquid, Standard Abbe refractometry

CCC(C)=O [butanone] + C1CCCCC1
Settings | mass density, 293.15 K [kg/m3] | mass density, 298.15 K [kg/m3] | mass density, 303.15 K [kg/m3] | refractive index, 293.15 K | refractive index, 298.15 K | refractive index, 303.15 K | speed of sound, 293.15 K [m/s] | speed of sound, 298.15 K [m/s] | speed of sound, 303.15 K [m/s]
[1], x2 = 0 | 805.6 | 799.7 | 794.9 | – | – | – | 1212 | 1192 | 1163
[1], x2 = 0.0472 | 802.6 | 796.4 | 791.5 | – | – | – | 1212 | 1190 | 1159
[1], x2 = 0.0979 | 799.8 | 793.7 | 788.8 | – | – | – | 1213 | 1190 | 1159
[1], x2 = 0.1986 | 794.7 | 788.8 | 784 | – | – | – | 1212 | 1190 | 1158
[1], x2 = 0.2973 | 790.3 | 784.8 | 779.9 | – | – | – | 1212 | 1190 | 1158
[1], x2 = 0.3975 | 786.6 | 781.4 | 776.4 | – | – | – | 1216 | 1192 | 1161
[1], x2 = 0.497 | 783.7 | 778.4 | 773.5 | – | – | – | 1221 | 1198 | 1166
[1], x2 = 0.6045 | 781 | 776.1 | 771.1 | – | – | – | 1229 | 1204 | 1172
[1], x2 = 0.6922 | 779.5 | 774.6 | 769.6 | – | – | – | 1236 | 1212 | 1179
[1], x2 = 0.7984 | 778.2 | 773.4 | 768.5 | – | – | – | 1248 | 1222 | 1188
[1], x2 = 0.8978 | 777.8 | 773.1 | 768.2 | – | – | – | 1261 | 1236 | 1200
[1], x2 = 0.9476 | 778 | 773.2 | 768.5 | – | – | – | 1269 | 1244 | 1207
[2], x2 = 0 | – | – | – | 1.37879 | 1.37618 | 1.37355 | – | – | –
[2], x2 = 0.0472 | – | – | – | 1.38079 | 1.37811 | 1.3754 | – | – | –
[2], x2 = 0.0979 | – | – | – | 1.3829 | 1.38016 | 1.37748 | – | – | –
[2], x2 = 0.1986 | – | – | – | 1.38711 | 1.38436 | 1.38159 | – | – | –
[2], x2 = 0.2973 | – | – | – | 1.39144 | 1.38857 | 1.38588 | – | – | –
[2], x2 = 0.3975 | – | – | – | 1.39592 | 1.3929 | 1.39029 | – | – | –
[2], x2 = 0.497 | – | – | – | 1.40055 | 1.39774 | 1.39494 | – | – | –
[2], x2 = 0.6045 | – | – | – | 1.40575 | 1.4026 | 1.40014 | – | – | –
[2], x2 = 0.6922 | – | – | – | 1.41006 | 1.40723 | 1.40443 | – | – | –
[2], x2 = 0.7984 | – | – | – | 1.4153 | 1.4125 | 1.4097 | – | – | –
[2], x2 = 0.8978 | – | – | – | 1.42041 | 1.41769 | 1.41473 | – | – | –
[2], x2 = 0.9476 | – | – | – | 1.42316 | 1.42035 | 1.41746 | – | – | –
